Measured values published in publication PMC8496750, “Identification of the organic anion transporting polypeptides responsible for the hepatic uptake of the major metabolite of epyrifenacil, S‐3100‐CA, in mice” (Pharmacology Research & Perspectives, 2021).

How the values were obtained:
[1] = tested on: mitochondrial PPO; parameters: method as in PMID 34908893; details: cited from earlier work
[2] = tested on: hepatocytes; parameters: method as in PMID 34908893; details: mouse vs human hepatocytes; cited from earlier work
[3] = parameters: method as in PMID 34908893; details: rats; 90‐day; cited from earlier work
[4] = Blood ^14C‐concentrations study; format: in vivo, Crl:CD1(ICR) mice; details: 1 mg/kg single oral
Method: Crl:CD1(ICR) mice at the age of 7 weeks were purchased from Charles River Laboratories Japan, Inc., Hino Breeding Center. The mice at the age of 8 or 9 weeks were dosed after completing a 7‐day quarantine period and an additional 0‐ to 7‐day acclimatization period. All animal experiments were conducted in accordance with the Guidance for the Care and Use of Laboratory Animals in our laboratory, which corresponds to the Guidelines for Proper Conduct of Animal Experiments (Science Council of Japan). Animals were maintained under constant environmental conditions: room temperature, 21−25°C; relative humidity, 55% ±15%; ventilation, 10 air exchanges per hour; and artificial lighting, from 8:00 am to 8:00 pm. The animals were provided with pelleted diet and water ad libitum. […] All animals were euthanized by bleeding from the abdominal artery under anesthesia.
[^14C]Epyrifenacil was isotopically diluted with the unlabeled test compound to adjust the specific activity to 5.00 MBq/mg. After evaporation of the solvent under nitrogen gas flow, labeled material was suspended in 0.5% (w/v) methylcellulose solution at a concentration of 1 mg/5 ml by grinding in a mortar. The suspension was stored frozen until the start of dosing. […] These dosing suspensions were stored in a refrigerator until dosing commenced.
Two mice per sex at 8 weeks old were given a single oral dose of [^14C]epyrifenacil at 1 mg/kg. Approximately 0.06–0.08 g of blood sample was periodically taken from the saphenous vein at 1, 2, 4, and 8 h after administration, and transferred to vials to measure the radioactivity in whole blood. […] AUC0‐∞ was calculated as the sum of AUC0‐8 h and AUC8 h‐∞. AUC0‐8 h was obtained using a trapezoidal rule, and AUC8 h‐∞ was calculated with a mono‐exponential equation describing the ^14C‐disappearance phase.

[5] = biological target: T1, mouse Oatp1b2 (Mus musculus, UniProt Q9JJL3); test: Inhibition of S‐3100‐CA uptake by OATP inhibitors, mouse Oatp1b2; format: in vitro ADME; parameters: expressed in transfected cells; host or cells: 293FT cells; details: inhibitor at 100 μM
T1 sequence (Q9JJL3 1-689): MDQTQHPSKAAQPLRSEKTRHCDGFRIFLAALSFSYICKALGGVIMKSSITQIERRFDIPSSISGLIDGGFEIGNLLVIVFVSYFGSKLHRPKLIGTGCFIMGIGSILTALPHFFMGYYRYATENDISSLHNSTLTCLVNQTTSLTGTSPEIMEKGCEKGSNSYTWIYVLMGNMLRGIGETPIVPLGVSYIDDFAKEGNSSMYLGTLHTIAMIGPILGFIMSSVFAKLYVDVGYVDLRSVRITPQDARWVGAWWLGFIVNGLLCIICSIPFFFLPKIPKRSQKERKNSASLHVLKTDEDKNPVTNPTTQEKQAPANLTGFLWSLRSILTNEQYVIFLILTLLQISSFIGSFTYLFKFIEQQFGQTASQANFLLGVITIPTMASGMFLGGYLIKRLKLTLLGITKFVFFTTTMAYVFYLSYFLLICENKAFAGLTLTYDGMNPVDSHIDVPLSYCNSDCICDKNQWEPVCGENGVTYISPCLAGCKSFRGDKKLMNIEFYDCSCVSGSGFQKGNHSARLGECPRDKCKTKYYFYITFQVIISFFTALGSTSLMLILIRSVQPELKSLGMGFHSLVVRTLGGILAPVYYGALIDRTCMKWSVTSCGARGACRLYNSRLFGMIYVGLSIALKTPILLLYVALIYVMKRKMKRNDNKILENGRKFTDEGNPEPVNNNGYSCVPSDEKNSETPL
Method: 293FT cells were purchased from Thermo Fisher Scientific, Inc.. The cells were grown in Dulbecco's modified Eagle medium (supplemented with 4.5 g/L glucose and 2 mM L‐glutamine) at 37°C, 5% CO2, and 95% humidity. The cells were passaged 3 times per week by harvesting cells using trypsin and plating at a density of 1.0 × 10^4 cells/cm^2 in a 10 cm cell culture plate for maintenance culture. The 293FT cells were detached using trypsin and re‐seeded at a density of 2.5 × 10^4 cells/cm^2 in BioCoat™ Collagen I 6‐well plates (Corning Inc.) for transfection and then treated with 1.2 μg of plasmid vector and 3.2 μl of Lipofectamine™ 2000 Transfection Reagent (Thermo Fisher Scientific, Inc.) according to the manufacturer's instructions. After a 3‐h treatment, the transfection medium was replaced with a fresh cell culture medium and incubated at 37°C with 95% humidity and 5% CO2 until ready for the assay.
Transport experiments were conducted approximately 24 h post‐transfection. […] From the lysate, 1.0 ml was transferred to a vial containing 10 ml of Emulsifier Scintillator Plus to measure the radioactivity in the LSC. The protein concentration of the cell lysate was also measured using a Pierce™ BCA Protein Assay Kit (Thermo Fisher Scientific, Inc.), which was used to normalize, according to the cell number, the radioactivity in the cell lysate extract. […]

SMILES: Cn1c(C(F)(F)F)cc(=O)n(-c2cc(Oc3cccnc3OCC(=O)O)c(Cl)cc2F)c1=O [S‐3100‐CA]
- PPO inhibitory activity (in words) ([1]; PPO inhibition study): comparable inhibitory activity to that of the parent epyrifenacil
- Inhibitory activity against mitochondrial PPO, mice relative to humans ([1]; higher in mice than in humans): 10 times
- Amount taken up by mouse hepatocytes relative to human hepatocytes [2]: 6–13 times

SMILES: CCOC(=O)COc1ncccc1Oc1cc(-n2c(=O)cc(C(F)(F)F)n(C)c2=O)c(F)cc1Cl [Epyrifenacil, ethyl[(3‐{2‐chloro‐4‐fluoro‐5‐[3‐methyl‐2,6‐dioxo‐4‐(trifluoromethyl)‐3,6‐dihydropyrimidin‐1(2H)‐yl]phenoxy}pyridin‐2‐yl)oxy]acetate]
- Hepatocyte injury [3]: produced hepatocyte injury
- ^14C‐Concentration in blood ([4]; 1 h, Female Animal_1): 0.127 µg eq. of epyrifenacil/g
- ^14C‐Concentration in blood ([4]; 1 h, Female Animal_2): 0.073 µg eq. of epyrifenacil/g
- ^14C‐Concentration in blood ([4]; 1 h, Male Animal_1): 0.030 µg eq. of epyrifenacil/g
- ^14C‐Concentration in blood ([4]; 1 h, Male Animal_2): 0.030 µg eq. of epyrifenacil/g
- ^14C‐Concentration in blood ([4]; 2 h, Female Animal_1): 0.111 µg eq. of epyrifenacil/g
- ^14C‐Concentration in blood ([4]; 2 h, Female Animal_2): 0.064 µg eq. of epyrifenacil/g
- ^14C‐Concentration in blood ([4]; 2 h, Male Animal_1): 0.031 µg eq. of epyrifenacil/g
- ^14C‐Concentration in blood ([4]; 2 h, Male Animal_2): 0.034 µg eq. of epyrifenacil/g
- ^14C‐Concentration in blood ([4]; 4 h, Female Animal_1): 0.076 µg eq. of epyrifenacil/g
- ^14C‐Concentration in blood ([4]; 4 h, Female Animal_2): 0.060 µg eq. of epyrifenacil/g
- ^14C‐Concentration in blood ([4]; 4 h, Male Animal_1): 0.028 µg eq. of epyrifenacil/g
- ^14C‐Concentration in blood ([4]; 4 h, Male Animal_2): 0.051 µg eq. of epyrifenacil/g
- ^14C‐Concentration in blood ([4]; 8 h, Female Animal_1): 0.045 µg eq. of epyrifenacil/g
- ^14C‐Concentration in blood ([4]; 8 h, Female Animal_2): 0.061 µg eq. of epyrifenacil/g
- ^14C‐Concentration in blood ([4]; 8 h, Male Animal_1): 0.024 µg eq. of epyrifenacil/g
- ^14C‐Concentration in blood ([4]; 8 h, Male Animal_2): 0.033 µg eq. of epyrifenacil/g
- C max of ^14C in blood ([4]; female mice): 0.100 μg eq. of epyrifenacil/g
- C max of ^14C in blood ([4]; male mice): 0.040 μg eq. of epyrifenacil/g

SMILES: CO[C@H]1/C=C/O[C@@]2(C)Oc3c(C)c(O)c4c(O)c(c(/C=N/N5CCN(C)CC5)c(O)c4c3C2=O)NC(=O)/C(C)=C\C=C\[C@H](C)[C@H](O)[C@@H](C)[C@@H](O)[C@@H](C)[C@H](OC(C)=O)[C@@H]1C [RIF, Rifampicin]
- Uptake of S‐3100‐CA, % of that by vehicle‐treated cells [5]: less than 40%
